This is an account of results in patent publication EP4643858A1, “METHODS AND PHARMACEUTICAL COMPOSITION FOR THE TREATMENT OF UTERINE DISEASE” (Institut National de la Santé et de la Recherche Médicale, priority 2024, dated 2025).

The test system of data set [1] is P-AKTSer473. The experiment in a line: Patient tissues (healthy endometrium, adenomyosis or endometriosis lesions) treated in vitro, Western blot of P-AKT. Format: cell-based, human. The conditions noted are these: healthy endometrium and lesions of adenomyosis or endometriosis from patients, exposed in vitro during 24 hours to different doses; Western blot P-AKTSer473 (Figure 3B). The protocol: (§1) Tissues were crushed and then lysed in RIPA lysis buffer supplemented with phosphatase and protease inhibitors. Protein concentrations were determined through the bicinchoninic acid method (Pierce). Protein extracts were analyzed by Western blot where the transfer membrane was incubated with a primary antibody followed by the appropriate peroxidase-conjugated secondary antibody (dilution 1:10,000). Chemiluminescence were acquired using a Chemidoc MP and bands were quantitated with the Image Lab Software (Bio-Rad Laboratories).
as §1, with “Tissues collected from patients (endometrium, adenomyosis, endometriosis and myoma). Tissues were cultivated in media and treated during 24 hours with either DMSO, alpelisib or ST420 (Compound having formula I and/or its derivatives). Then, they” for “Tissues”, “and” for “and then”
PIK3CA pharmacological inhibitors are developed for oncology and other medical situations. […]

Data set [2] deals with P-AKTSer473. Kind of data set: Patient myometrium and myoma samples treated in vitro, Western blot of P-AKT. The conditions noted are these: myometrium and myoma samples from patients treated in vitro 24 hours at different doses; Western blot P-AKTSer473 (Figure 4). Format: cell-based, human. As for the experimental part:
as §1
as §1, with “Tissues collected from patients (endometrium, adenomyosis, endometriosis and myoma). Tissues were cultivated in media and treated during 24 hours with either DMSO, alpelisib or ST420 (Compound having formula I and/or its derivatives). Then, they” for “Tissues”, “and” for “and then”, “Laboratories). […]” for “Laboratories).”

The conditions of data set [3]: patients treated with alpelisib; cited from earlier work.

The structures appear in SMILES notation.

In the case of `Cc1nc(NC(=O)N2CCC[C@H]2C(N)=O)sc1-c1ccnc(C(C)(C)C(F)(F)F)c1` [alpelisib], in data set [1], the “phosphorylation of AKT” value is “able to shut down the phosphorylation of AKT”. The “inhibition of the PIK3CA pathway in myoma” value in data set [2] was “able to inhibit the pathway in myoma”. For the same compound, the “insulin resistance which can lead to diabetes, share of patients” value in data set [3] is “about 30%”.
